Publication PMC10764104, “Discovery of Molecular Glue Degraders via Isogenic Morphological Profiling” (ACS Chemical Biology, 2023)

What was measured:
GSPT2 = biological target: T1, GSPT2 (Homo sapiens, UniProt Q8IYD1+Q96SW2); assay: Western blot analysis of GSPT1 and GSPT2 degradation in RKO WT or CRBN KO cells; assay type: cell-based
T1 construct: endogenous in cells; host or cells: RKO WT or RKO CRBN KO
Description: (A) Structure of FL2-14 comprising fluorosulfate scaffold FL2 (black) and tail group modification 14 (blue). (B) DMSO-normalized quantitative proteomics after 16 h of treatment with FL2-14 (10 μM) in RKO WT (n = 2). […] (C) Structural alignment of AlphaFold models of GSPT1 (AF-P15170-F1-model_v4 in gray) and GSPT2 (AF-Q8IYD1-F1-model_v4 in blue). (D) Validation of GSPT2 degradation by FL2-14. […] (E) Dose–response of FL2-14 in RKO and HEK293T cells. Cells were treated with the FL2-14 (0 to 10 μM) for 16 h. (F) Degradation of GSPT2^WT or GSPT2^G566N. […]
Analysis of targeted protein degradation of GSPT1 and GSPT2 via western blot For degradation assays 800 000 RKO WT or CRBN KO cells were seeded 1 day prior to the treatment in 6 well plates.
Then, cells were treated with 10 µM of the compounds for 16 hours if not otherwise stated. Cells were harvested, lysed for 30 min at 37°C in lysis buffer (1x PBS, 1% SDS, 2 mM MgCl2, 1x Halt Protease inhibitor cocktail, 50 Units Benzonase) and cleared for 30 min at 18 000 x g at 4°C. Protein concentration was determined with the Pierce 660 nm Protein Assay using the Ionic Detergent Compatibility Reagent (Thermo Scientific). 10 µg total proteome were subjected to western blot analysis by adding 4x Bolt™ LDS Sample Buffer (Thermo Scientific). Samples were boiled at 95°C for 5 min and subjected to gel electrophoresis with Bolt™ 4‐12% Bis‐Tris Plus Gels (Thermo Scientific) with Bolt™ MES SDS Running Buffer (Thermo Scientific). Membranes were blocked with 5% fat‐free milk in TBS‐T (20 mM Tris, 150 mM NaCl, 0.1% Tween, pH 7.6) for 1 h at room temperature and washed subsequently 3x 5 min with TBS‐
T. Afterwards, they were incubated for 1 h at room temperature with either GSPT1 antibody (Abcam ab49878, rabbit, […]
rabbit, 1:10 000), CRBN (Cell Signaling Technologies, CST71810S, rabbit, 1:1000), or GAPDH (SantaCruz sc‐47724, mouse, 1:1 000). Followed by washing 3x 5 min with TBS‐T and incubation for 1 h at room temperature with either Goat ANTI‐RABBIT IgG StarBright™ Blue 700 (Bio‐Rad, #12004162, 1:10 000) or Goat anti‐Mouse IgG (H+L) Cross‐ Adsorbed Secondary Antibody, DyLight™ 800 (Bio‐Rad, STAR117D800GA, 1:10 000) fluorophore‐conjugated

[1] = CellTiter-Glo cytotoxicity of selected compounds (manual, 72 h); assay type: cell-based, human; conditions: human, up to 10 μM
Description: Assessment of gene expression and essentiality in RKO WT
Fluorescence Polarization‐based competition assay
EC50 values were calculated with GraphPad Prism […]
the FP value of free tracer. […]
instructions. […] For the screening of the whole SuFEx
Data visualization was done with seaborn
(https://seaborn.pydata.org, version 0.12.2). […]
compounds. (F) Analysis of the cytotoxicity of compounds with treatment‐centric features related to FL2‐ […]
Synthesis and in Vitro Evaluation of Diverse Heterocyclic Diphenolic Compounds as Inhibitors of DYRK1A.
(7) Zhang, J.‐H.; Chung, T. D. Y.; Oldenburg, K. R. A Simple Statistical Parameter for Use in Evaluation and Validation of High Throughput Screening Assays. SLAS Discov.

T1 sequence (Q8IYD1 whole entry): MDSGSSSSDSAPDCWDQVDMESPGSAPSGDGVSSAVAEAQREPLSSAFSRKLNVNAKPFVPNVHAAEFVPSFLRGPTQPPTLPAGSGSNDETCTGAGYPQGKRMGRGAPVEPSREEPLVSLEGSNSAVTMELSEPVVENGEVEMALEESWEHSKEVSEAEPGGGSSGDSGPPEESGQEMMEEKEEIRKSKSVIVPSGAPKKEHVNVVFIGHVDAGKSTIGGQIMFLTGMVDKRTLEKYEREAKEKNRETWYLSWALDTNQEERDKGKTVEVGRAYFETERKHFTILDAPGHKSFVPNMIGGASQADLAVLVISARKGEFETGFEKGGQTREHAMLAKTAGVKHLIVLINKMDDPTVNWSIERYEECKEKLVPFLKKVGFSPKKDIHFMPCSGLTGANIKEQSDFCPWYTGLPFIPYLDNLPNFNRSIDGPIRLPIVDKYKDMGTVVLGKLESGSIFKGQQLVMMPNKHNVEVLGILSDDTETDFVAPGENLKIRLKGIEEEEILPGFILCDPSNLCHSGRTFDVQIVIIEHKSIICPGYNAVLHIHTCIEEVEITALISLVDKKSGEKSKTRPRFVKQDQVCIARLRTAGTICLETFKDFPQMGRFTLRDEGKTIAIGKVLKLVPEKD
T1 sequence (Q96SW2 whole entry): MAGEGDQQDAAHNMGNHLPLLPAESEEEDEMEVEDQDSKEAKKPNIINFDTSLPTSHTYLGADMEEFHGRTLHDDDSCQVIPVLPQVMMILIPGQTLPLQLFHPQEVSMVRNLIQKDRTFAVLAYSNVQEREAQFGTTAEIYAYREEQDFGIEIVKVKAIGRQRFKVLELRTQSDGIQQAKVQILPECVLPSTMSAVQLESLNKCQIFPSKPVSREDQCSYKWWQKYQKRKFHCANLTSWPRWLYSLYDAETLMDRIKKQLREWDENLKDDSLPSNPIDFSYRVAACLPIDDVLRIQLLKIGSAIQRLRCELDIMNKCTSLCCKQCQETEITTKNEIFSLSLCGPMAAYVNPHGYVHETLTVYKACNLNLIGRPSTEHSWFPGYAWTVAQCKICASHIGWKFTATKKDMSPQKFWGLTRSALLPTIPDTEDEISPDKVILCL
T1 sequence (Q16531 2-1140 partner limits assumed): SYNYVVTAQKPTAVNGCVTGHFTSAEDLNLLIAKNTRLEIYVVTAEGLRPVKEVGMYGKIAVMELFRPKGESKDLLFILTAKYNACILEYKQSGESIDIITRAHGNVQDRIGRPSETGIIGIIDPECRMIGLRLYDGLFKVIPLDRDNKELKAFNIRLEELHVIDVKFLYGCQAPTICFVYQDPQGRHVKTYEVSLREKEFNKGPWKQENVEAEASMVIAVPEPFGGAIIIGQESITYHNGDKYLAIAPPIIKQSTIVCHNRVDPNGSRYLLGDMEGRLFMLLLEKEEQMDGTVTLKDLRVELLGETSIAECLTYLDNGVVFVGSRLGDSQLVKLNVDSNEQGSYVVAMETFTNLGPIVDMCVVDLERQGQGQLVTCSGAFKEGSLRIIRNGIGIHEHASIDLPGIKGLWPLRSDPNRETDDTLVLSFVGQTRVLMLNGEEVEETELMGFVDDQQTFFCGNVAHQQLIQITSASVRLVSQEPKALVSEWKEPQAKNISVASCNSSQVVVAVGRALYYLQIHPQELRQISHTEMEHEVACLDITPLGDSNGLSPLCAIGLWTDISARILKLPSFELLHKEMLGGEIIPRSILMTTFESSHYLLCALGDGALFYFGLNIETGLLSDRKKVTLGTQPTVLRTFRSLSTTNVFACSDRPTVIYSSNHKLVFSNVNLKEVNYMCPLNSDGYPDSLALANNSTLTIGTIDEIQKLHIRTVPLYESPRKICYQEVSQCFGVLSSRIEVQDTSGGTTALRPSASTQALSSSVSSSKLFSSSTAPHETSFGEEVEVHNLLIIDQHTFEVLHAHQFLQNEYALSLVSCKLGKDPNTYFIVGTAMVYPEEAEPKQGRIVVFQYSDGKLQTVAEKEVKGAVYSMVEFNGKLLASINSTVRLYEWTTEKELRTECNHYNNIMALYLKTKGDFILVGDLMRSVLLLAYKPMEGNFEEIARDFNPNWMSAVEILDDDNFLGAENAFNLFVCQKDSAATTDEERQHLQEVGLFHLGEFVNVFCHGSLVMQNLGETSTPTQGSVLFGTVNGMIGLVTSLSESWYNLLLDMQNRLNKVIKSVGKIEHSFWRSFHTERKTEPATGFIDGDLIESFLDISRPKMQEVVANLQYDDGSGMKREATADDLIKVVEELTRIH

SMILES: CN(Cc1ncc(C2CC2)o1)S(=O)(=O)Oc1ccc(Nc2ccc3c(c2)C(=O)N(C2CCC(=O)NC2=O)C3=O)cc1 (stereo not drawn) [FL2-14]
- treatment time at which GSPT2 degradation is apparent (GSPT2; 10 µM, time-course in RKO and HEK293T cells): 5 h
- GSPT2 degradation in RKO CRBN KO cells (GSPT2; RKO CRBN KO, 10 μM, 16 h): completely abrogated
- degradation of GSPT2 versus GSPT1 (Western blot) (GSPT2; RKO WT, 10 μM, 16 h): preferentially degraded GSPT2 over GSPT1
- concentration range of GSPT2 degradation (dose-response) (GSPT2; RKO, 0 to 10 μM, 16 h): submicromolar range
- EC50 at 72 h ([1]; HEK293T cells): > 10 µM
- EC50 at 72 h ([1]; RKO WT cells): > 10 µM
